Assay [1] deals with 3',5'-cyclic-AMP phosphodiesterase 4D (Homo sapiens, UniProt Q08499). In words: Inhibition of human PDE4D2 catalytic domain (86 to 413 residues) expressed in Escherichia coli strain BL21 using [3H]cAMP as substrate after 15 mins by liquid scintillation counter analysis.
Assay [2] is filed under the species Homo sapiens. In words: Selectivity ratio of IC50 for human PDE2A3 catalytic domain (222 to 904 residues) expressed in Escherichia coli strain BL21 to IC50 for human PDE4D2 catalytic domain (86 to 413 residues) expressed in Escherichia coli strain BL21.
For assay [3], the species on record is Homo sapiens. The assay is described as follows: Selectivity ratio of IC50 for human PDE5A1 catalytic domain (535 to 860 residues) expressed in Escherichia coli strain BL21 to IC50 for human PDE4D2 catalytic domain (86 to 413 residues) expressed in Escherichia coli strain BL21.
Assay [4] concerns the target cGMP-dependent 3',5'-cyclic phosphodiesterase (Homo sapiens, UniProt O00408). In words: Inhibition of human PDE2A3 catalytic domain (222 to 904 residues) expressed in Escherichia coli strain BL21 using [3H]cAMP as substrate after 15 mins by liquid scintillation counter analysis.
The species entered for assay [5] is Homo sapiens. The assay is described as follows: Selectivity ratio of IC50 for human PDE1B2 catalytic domain (10 to 487 residues) expressed in Escherichia coli strain BL21 to IC50 for human PDE4D2 catalytic domain (86 to 413 residues) expressed in Escherichia coli strain BL21.
Assay [6] has as its target cAMP and cAMP-inhibited cGMP 3',5'-cyclic phosphodiesterase 10A (Homo sapiens, UniProt Q9Y233). In words: Inhibition of human PDE10A2 catalytic domain (448 to 789 residues) expressed in Escherichia coli strain BL21 using [3H]cAMP as substrate after 15 mins by liquid scintillation counter analysis.
In assay [7] the target is Dual specificity calcium/calmodulin-dependent 3',5'-cyclic nucleotide phosphodiesterase 1B (Homo sapiens, UniProt Q01064). In words: Inhibition of human PDE1B2 catalytic domain (10 to 487 residues) expressed in Escherichia coli strain BL21 using [3H]cAMP as substrate after 15 mins by liquid scintillation counter analysis.
Dual specificity calcium/calmodulin-dependent 3',5'-cyclic nucleotide phosphodiesterase 1B, sequence (Q01064 whole entry, the tested form may be a part): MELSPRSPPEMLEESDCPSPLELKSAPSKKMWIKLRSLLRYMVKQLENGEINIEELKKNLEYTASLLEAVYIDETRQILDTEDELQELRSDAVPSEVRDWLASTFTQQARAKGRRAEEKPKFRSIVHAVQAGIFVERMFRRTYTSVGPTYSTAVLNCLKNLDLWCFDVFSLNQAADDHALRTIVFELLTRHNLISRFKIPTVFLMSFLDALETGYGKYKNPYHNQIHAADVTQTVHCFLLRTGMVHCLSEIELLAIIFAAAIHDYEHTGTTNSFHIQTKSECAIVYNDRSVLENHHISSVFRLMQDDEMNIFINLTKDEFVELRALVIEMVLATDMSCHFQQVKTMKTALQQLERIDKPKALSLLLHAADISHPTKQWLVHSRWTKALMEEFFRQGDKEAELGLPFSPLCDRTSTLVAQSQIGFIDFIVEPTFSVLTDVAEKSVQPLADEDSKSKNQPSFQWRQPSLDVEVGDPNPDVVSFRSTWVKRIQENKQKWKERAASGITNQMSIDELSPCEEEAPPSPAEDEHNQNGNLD
The target of assay [8] is cGMP-specific 3',5'-cyclic phosphodiesterase (Homo sapiens, UniProt O76074). In words: Inhibition of human PDE5A1 catalytic domain (535 to 860 residues) expressed in Escherichia coli strain BL21 using [3H]cAMP as substrate after 15 mins by liquid scintillation counter analysis.
For assay [9], the target named is High affinity cGMP-specific 3',5'-cyclic phosphodiesterase 9A (Homo sapiens, UniProt O76083). The assay is described as follows: Inhibition of human PDE9A2 catalytic domain (181 to 506 residues) expressed in Escherichia coli strain BL21 using [3H]cAMP as substrate after 15 mins by liquid scintillation counter analysis.
High affinity cGMP-specific 3',5'-cyclic phosphodiesterase 9A, sequence (O76083 whole entry, the tested form may be a part): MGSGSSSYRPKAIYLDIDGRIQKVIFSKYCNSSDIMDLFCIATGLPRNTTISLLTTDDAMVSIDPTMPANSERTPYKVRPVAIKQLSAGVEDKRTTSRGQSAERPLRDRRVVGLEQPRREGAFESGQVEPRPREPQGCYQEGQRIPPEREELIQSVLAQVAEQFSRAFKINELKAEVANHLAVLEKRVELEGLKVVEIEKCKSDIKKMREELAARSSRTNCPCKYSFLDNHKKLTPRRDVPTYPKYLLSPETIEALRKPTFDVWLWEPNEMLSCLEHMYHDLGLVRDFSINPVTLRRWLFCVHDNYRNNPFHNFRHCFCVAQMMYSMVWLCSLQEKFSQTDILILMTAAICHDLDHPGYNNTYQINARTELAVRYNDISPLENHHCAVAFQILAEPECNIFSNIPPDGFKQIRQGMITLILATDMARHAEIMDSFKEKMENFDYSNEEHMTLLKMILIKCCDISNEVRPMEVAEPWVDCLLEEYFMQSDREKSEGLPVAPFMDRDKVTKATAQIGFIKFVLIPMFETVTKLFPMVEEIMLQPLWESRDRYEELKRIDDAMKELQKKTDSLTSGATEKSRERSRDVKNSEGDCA
For assay [10], the species on record is Homo sapiens. In words: Selectivity ratio of IC50 for human PDE10A2 catalytic domain (448 to 789 residues) expressed in Escherichia coli strain BL21 to IC50 for human PDE4D2 catalytic domain (86 to 413 residues) expressed in Escherichia coli strain BL21.
The species named for assay [11] is Homo sapiens. In words: Selectivity ratio of IC50 for human PDE9A2 catalytic domain (181 to 506 residues) expressed in Escherichia coli strain BL21 to IC50 for human PDE4D2 catalytic domain (86 to 413 residues) expressed in Escherichia coli strain BL21.

3',5'-cyclic-AMP phosphodiesterase 4D, sequence (Q08499 whole entry, the tested form may be a part): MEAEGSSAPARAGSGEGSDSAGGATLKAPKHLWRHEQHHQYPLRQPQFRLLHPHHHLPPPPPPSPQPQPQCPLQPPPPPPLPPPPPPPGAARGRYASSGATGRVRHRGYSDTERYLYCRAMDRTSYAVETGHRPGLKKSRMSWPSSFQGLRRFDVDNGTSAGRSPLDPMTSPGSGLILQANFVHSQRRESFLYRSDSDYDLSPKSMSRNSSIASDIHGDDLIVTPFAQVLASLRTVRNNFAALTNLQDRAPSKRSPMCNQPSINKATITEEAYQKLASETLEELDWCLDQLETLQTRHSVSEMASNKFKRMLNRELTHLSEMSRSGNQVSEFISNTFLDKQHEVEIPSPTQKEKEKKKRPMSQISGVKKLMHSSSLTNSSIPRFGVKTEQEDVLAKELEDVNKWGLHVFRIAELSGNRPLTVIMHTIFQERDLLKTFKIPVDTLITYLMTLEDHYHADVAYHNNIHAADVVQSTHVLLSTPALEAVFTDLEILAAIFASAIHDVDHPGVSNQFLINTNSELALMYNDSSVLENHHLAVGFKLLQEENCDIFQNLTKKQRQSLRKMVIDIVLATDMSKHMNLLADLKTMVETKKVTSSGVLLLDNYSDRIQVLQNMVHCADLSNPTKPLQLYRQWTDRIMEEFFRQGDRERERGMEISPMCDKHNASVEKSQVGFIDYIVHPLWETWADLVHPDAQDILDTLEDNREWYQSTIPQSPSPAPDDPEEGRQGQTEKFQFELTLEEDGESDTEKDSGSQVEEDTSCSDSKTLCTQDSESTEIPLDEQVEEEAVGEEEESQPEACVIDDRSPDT
cAMP and cAMP-inhibited cGMP 3',5'-cyclic phosphodiesterase 10A, sequence (Q9Y233 whole entry, the tested form may be a part): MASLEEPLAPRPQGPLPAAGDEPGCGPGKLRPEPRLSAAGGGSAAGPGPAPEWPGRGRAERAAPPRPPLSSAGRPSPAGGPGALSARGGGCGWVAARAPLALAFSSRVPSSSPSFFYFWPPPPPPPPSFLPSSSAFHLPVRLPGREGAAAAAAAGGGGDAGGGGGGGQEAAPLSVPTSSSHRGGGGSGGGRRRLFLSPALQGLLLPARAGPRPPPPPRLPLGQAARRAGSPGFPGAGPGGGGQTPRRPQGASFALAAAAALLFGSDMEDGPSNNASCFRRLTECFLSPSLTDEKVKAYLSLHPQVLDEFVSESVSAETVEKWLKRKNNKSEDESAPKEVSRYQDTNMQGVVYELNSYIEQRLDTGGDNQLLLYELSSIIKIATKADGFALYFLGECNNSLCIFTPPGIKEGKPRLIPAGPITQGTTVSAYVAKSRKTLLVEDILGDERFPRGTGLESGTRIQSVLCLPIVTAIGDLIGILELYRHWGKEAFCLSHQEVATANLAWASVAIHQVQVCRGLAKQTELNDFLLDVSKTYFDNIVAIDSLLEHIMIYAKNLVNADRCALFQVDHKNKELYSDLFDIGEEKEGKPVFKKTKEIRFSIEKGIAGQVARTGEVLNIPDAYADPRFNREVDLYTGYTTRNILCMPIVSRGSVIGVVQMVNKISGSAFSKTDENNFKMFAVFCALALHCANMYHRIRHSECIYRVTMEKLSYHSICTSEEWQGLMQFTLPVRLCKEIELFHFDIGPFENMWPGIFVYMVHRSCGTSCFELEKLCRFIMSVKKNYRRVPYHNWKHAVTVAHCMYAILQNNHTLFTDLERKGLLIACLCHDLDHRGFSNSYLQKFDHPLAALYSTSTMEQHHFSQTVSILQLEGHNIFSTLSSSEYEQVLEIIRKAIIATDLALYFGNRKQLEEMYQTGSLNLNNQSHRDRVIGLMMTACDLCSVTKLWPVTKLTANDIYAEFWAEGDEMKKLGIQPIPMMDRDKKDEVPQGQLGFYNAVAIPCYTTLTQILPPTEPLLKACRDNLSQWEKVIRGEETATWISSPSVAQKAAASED
cGMP-dependent 3',5'-cyclic phosphodiesterase, sequence (O00408 whole entry, the tested form may be a part): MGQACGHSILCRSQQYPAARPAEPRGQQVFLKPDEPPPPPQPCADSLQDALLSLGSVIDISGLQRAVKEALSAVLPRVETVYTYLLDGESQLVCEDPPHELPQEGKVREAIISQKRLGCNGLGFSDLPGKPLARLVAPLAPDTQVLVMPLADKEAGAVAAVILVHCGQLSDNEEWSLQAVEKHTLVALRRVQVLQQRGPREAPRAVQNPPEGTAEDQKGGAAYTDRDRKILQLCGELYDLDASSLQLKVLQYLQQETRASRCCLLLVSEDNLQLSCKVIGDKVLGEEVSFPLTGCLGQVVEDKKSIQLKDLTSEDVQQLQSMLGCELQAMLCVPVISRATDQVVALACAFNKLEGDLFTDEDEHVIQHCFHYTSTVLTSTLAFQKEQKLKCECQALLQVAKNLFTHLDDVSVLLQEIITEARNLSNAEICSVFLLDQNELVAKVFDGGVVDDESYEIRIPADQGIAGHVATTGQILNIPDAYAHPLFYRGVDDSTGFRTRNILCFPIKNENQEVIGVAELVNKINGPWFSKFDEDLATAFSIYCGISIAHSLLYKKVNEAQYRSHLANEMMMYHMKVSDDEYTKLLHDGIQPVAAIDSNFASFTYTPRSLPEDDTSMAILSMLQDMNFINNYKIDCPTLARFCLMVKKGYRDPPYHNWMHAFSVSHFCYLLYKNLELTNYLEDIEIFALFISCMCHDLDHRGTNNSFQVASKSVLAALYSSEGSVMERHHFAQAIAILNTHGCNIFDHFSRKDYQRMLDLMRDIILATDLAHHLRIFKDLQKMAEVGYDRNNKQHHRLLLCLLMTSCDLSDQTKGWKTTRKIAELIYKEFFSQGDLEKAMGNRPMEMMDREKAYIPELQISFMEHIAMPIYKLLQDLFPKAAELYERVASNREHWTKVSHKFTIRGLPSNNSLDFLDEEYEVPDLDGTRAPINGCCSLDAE

For orientation: IC50 means the point on the concentration scale where inhibition reaches its midpoint. Turning to `CC(C)=CCc1cc([C@@H]2CC(=O)c3c(O)cc(O)cc3O2)c(O)c(CC=C(C)C)c1O`, in assay [1], it took 9900 nM to reach half-maximal inhibition (IC50).

Regarding `CC(C)=CCc1c(-c2ccc(O)cc2O)oc2c3c(cc(O)c2c1=O)OC(C)(C)C=C3` [MORUSIN], in assay [1], the midpoint of inhibition, the IC50, lay at 900 nM.

In assay [1], `CC(C)=CCC/C(C)=C/Cc1c(O)c(CC=C(C)C)cc([C@@H]2CC(=O)c3c(O)cc(O)cc3O2)c1O` showed a half-inhibitory concentration (IC50) of 2190 nM.

In [1], `CC1(C)C=Cc2c(ccc(-c3cc(=O)c4c(O)cc5c(c4o3)C=CC(C)(C)O5)c2O)O1` yielded an IC50 of 30 nM.

On to `CC(C)=CCCC1(C)C=Cc2c(ccc(-c3oc4cc(O)cc(O)c4c(=O)c3CC=C(C)C)c2O)O1` (stereo unspecified), for which the IC50 in assay [1] was 270 nM.

As for `CC(C)=CCc1c(O)cc(O)c2c(=O)cc(-c3ccc(O)cc3)oc12`, inhibition in [1] was half-maximal at 630 nM (IC50).

In the case of `CC(C)C[C@@H]1Oc2cc(O)ccc2-c2oc3c4c(cc(O)c3c(=O)c21)OC(C)(C)CC4`, the IC50 in assay [1] turned out to be 7500 nM.

In the case of `CC(C)=CCc1c(O)cc(O)c2c(=O)c3c(oc12)-c1ccc(O)cc1OC3C=C(C)C` (stereo unspecified), in assay [1], the 50% inhibitory concentration (IC50) turned out to be 40 nM.

`C/C(C=O)=C\Cc1c(-c2ccc(O)cc2O)oc2c3c(cc(O)c2c1=O)OC(C)(C)C=C3`: the IC50 in [1] amounted to 9210 nM.

In [1], `C=CC(C)(C)c1cc(-c2cc(=O)c3c(O)cc(O)cc3o2)c(O)cc1O` gave an IC50 of 1880 nM.

Take `CC(C)=C[C@@H]1Oc2cc(O)ccc2-c2oc3c4c(cc(O)c3c(=O)c21)OC(C)(C)C=C4`: in assay [1], the half-maximal inhibitory concentration (IC50) worked out at 250 nM and the inhibition entry is “Dose-dependent effect”.

Take `CC(C)=CCC/C(C)=C/Cc1cc([C@@H]2CC(=O)c3c(O)cc(O)cc3O2)c(O)cc1O`: half-maximal inhibition in [1] (IC50) required 1260 nM.

Compound `CC(=O)Oc1ccc2c(c1)O[C@H](C=C(C)C)c1c-2oc2c3c(cc(O)c2c1=O)OC(C)(C)C=C3` showed an IC50 in assay [1] of 4890 nM.

Consider `CC(C)=CCC/C(C)=C/Cc1c(O)ccc([C@@H]2CC(=O)c3c(O)cc(O)cc3O2)c1O`, for which, in [1], half-maximal inhibition (IC50) was put at 2330 nM.

`CC1(C)C=Cc2c(c3c(c4c(=O)cc(-c5ccc(O)cc5O)oc24)OC(C)(C)CC3)O1` registered an IC50 in assay [1] of 870 nM.

Regarding `CC(C)C[C@H]1Oc2cc(O)ccc2-c2oc3c4c(cc(O)c3c(=O)c21)OC(C)(C)CC4`, 4350 nM corresponded to half-maximal inhibition in assay [1] (IC50).

With `CC(C)=CCc1c(-c2ccc(O)cc2O)oc2c(CC=C(C)C)c(O)cc(O)c2c1=O` [KUWANON C], the 50% inhibitory concentration (IC50) in [1] is 310 nM.

As for `CC(C)=CCc1c(O)cc2oc(-c3ccc(O)cc3O)c(CC=C(C)C)c(=O)c2c1O` [CUDRAFLAVONE C], the IC50 in assay [1] came out at 260 nM.

In turn, `COC1CC(C)(C)Oc2cc(O)c3c(=O)c(CC=C(C)C)c(-c4ccc(O)cc4O)oc3c21` (stereo unspecified) yielded a half-inhibitory concentration (IC50) in assay [1] of 20 nM.

`CC(C)=C[C@H]1Oc2cc(O)ccc2-c2oc3c4c(cc(O)c3c(=O)c21)OC(C)(C)C=C4`: the Ratio IC50 in assay [2] was 109; in [3], 76; in assay [5], 55; in assay [10] it was 94; in assay [11], 65. Further, the IC50 in assay [4] came out at 590 nM; in assay [6], 510 nM; in [7], 300 nM; in [8], 410 nM; in [9], 350 nM; in [1], 5.4 nM. In assay [1], the inhibition result is “Dose-dependent effect”.

In turn, `CC(C)=CC1Oc2cc(O)ccc2-c2oc3cc(O)cc(O)c3c(=O)c21` (stereo unspecified) came in with an IC50 in assay [1] of 400 nM.

Turning to `CC(C)=CCCC1(C)C=Cc2cc(C3CC(=O)c4c(O)cc(O)cc4O3)c(O)cc2O1` (stereo unspecified), 3590 nM corresponded to half-maximal inhibition in [1] (IC50).

For the compound `COc1ccc2c(c1)O[C@H](C=C(C)C)c1c-2oc2c3c(cc(O)c2c1=O)OC(C)(C)C=C3`, 5180 nM corresponded to half-maximal inhibition in assay [1] (IC50).

With `COc1ccc2c(c1)O[C@@H](C=C(C)C)c1c-2oc2c3c(cc(O)c2c1=O)OC(C)(C)C=C3`, half-maximal inhibition in [1] (IC50) required 8600 nM.
